According to US20200069668A1, “Therapeutic Combinations of an IRAK4 Inhibitor and a BTK Inhibitor” (Acerta Pharma B.V., priority 2015, published 2020):

Tests used:
[1] = tested on: GPVI platelet aggregation; experiment: GPVI (convulxin) platelet aggregation; format: cell-based, human
ID8 ovarian cancer = experiment: ID8 syngeneic orthotropic ovarian cancer model; format: in vivo, mice; details: 15 mg/kg/BID orally
Source text: Human ovarian cancer models, including the ID8 syngeneic orthotropic ovarian cancer model and other animal models, are described in Fong and Kakar, J. Ovarian Res. 2009, 2, 12; Greenaway, et al., Gynecol. Oncol. 2008, 108, 385-94; Urzua, et al., Tumour Biol. 2005, 26, 236-44; Janat-Amsbury, et al., Anticancer Res. 2006, 26, 3223-28; Janat-Amsbury, et al., Anticancer Res. 2006, 26, 2785-89. […] The results of the study are shown in FIG. 4, FIG. 5, FIG. 6, FIG. 7, FIG. 8, FIG. 9, FIG. 10, and FIG. 11.

[2] = tested on: 80 known pharmacologic targets such as G-protein-coupled receptors, nuclear receptors, proteases, and ion channels; experiment: Binding assays with 80 known pharmacologic targets; details: screened at 10 μM
Source text: (§1) Formula (2) was well tolerated in standard in vivo Good Laboratory Practices (GLP) studies of pharmacologic safety.

NK cells (CD56+/CD107a+) = experiment: Whole blood NK cell degranulation with obinutuzumab-opsonised MEC-1 cells; format: cell-based, human; details: 1 h pretreatment, obinutuzumab 1 μg/mL, 4 h
Method: Degranulation in whole blood was performed as follows. […] Exponentially growing cells were used. […] A white blood cell (WBC) count of whole blood was performed. […] The ibrutinib control and two blinded BTK inhibitors were diluted in X-VIVO 15 serum-free hematopoietic cell medium (Lonza Group, Ltd.) to concentrations of 200 μM, 20 M and 2 μM. 170 μL aliquots of unmanipulated whole blood were incubated with 10 μL BTK inhibitors or X-VIVO 15 medium for one hour into a plate. […] The samples were placed in a 5% CO2 incubator for 4 hours at 37° C.
After 4 hours, the samples were mixed gently and 50 μL aliquots were removed from each well and placed in fluorescence-activated cell sorting (FACS) test tubes. A 20 μL aliquot of anti-CD56-APC antibody and anti-CD107a-PE antibody was added. The samples were incubated for 20 minutes at room temperature in the dark. An aliquot of 2 mL of FACS lysing solution (BD Biosceinces) was added. The samples were again incubated for 5 minutes, and then centrifuged at 2000 rpm for 5 minutes. Supernatant was discarded and the cell pellet was resuspended in 500 μL of PBS. The samples were analyzed on the flow cytometer for CD107a^+ NK cells (CD56^+).

[3] = tested on: BCR activation markers CD69 and CD86; experiment: In vivo potency: BCR activation markers after gavage; details: mice, 3 hours post-dose, IgM stimulation, compared with Formula (10)
Method: Mice were gavaged at increasing drug concentration and sacrificed at one time point (3 hours post-dose). BCR is stimulated with IgM and the expression of activation markers CD69 and CD86 are monitored by flow cytometry to determine EC50 values.
CD86 and CD69 are cell surface proteins that are BCR activation markers. […] BCR was stimulated with IgM and the expression of activation marker CD69 and CD86 are monitored by flow cytometry to determine EC50 values.

relapsed/refractory CLL = experiment: Clinical study in relapsed/refractory CLL: efficacy; format: in vivo, human; details: Kaplan-Meier, p-value 0.0206
Method: This study is a multicenter, open-label, nonrandomized, sequential group, dose escalation study. The following dose cohorts will be evaluated:
The investigator rates the subject's response to treatment based on recent guidelines for CLL, as given in Hallek, et al., Blood 2008, 111, 5446-56, and for SLL, as given in Cheson, et al., J. Clin. Oncol. 2007, 25, 579-586.
The analysis of efficacy parameters was performed as follows. The point estimate of the overall response rate will be calculated for the PP analysis set. The corresponding 95% confidence interval also will be derived. The duration of overall response is measured from the time measurement criteria are met for CR or PR (whichever is first recorded) until the first date that recurrent or progressive disease is objectively documented (taking as reference for progressive disease the smallest measurements recorded since the treatment started). […] Progression-free survival is measured from the time of first study drug administration until the first date that recurrent or progressive disease is objectively documented (taking as reference for progressive disease the smallest measurements recorded since the treatment started). […]
The study scheme is a seqential cohort escalation. […] The dose level for Cohort 6 will be determined based on the safety and efficacy of Cohorts 1 to 5, and will not exceed 900 mg/day. […]

[4] = Cardiovascular function study in awake telemeterized dogs; format: in vivo, male beagle dogs; details: single doses through 30 mg/kg
Source text: as §1

CD8+ T cell function = experiment: Cytotoxic T cell (CTL) assay; format: cell-based; details: relative to vehicle; for CD8+ T cell function as % cytotoxicity: 500 nM
Method: Without being bound by any theory, CD8^+ T cells have two primary effector functions: (1) produce large amounts of IFN-γ (which activates macrophages), and (2) cytolytic activity. […] The targets were B lymphoblasts from lipopolysaccharide (LPS) treated cultures. The assay was performed by incubating different ratios of effectors:targets for 4 hours.

[5] = GLP functional observation battery; format: in vivo; details: rats, doses through 300 mg/kg
Source text: as §1

BTK = target: T1, BTK (Mus musculus, UniProt P35991); experiment: Molecular probe assay of BTK occupancy in MDSCs of tumor bearing PDA mice; format: in vivo; details: 15 mg/kg BID, Day 8, 4 hours post dose
T1 construct: endogenous in cells; host or cells: granulocytic and monocytic MDSCs from tumour-bearing PDA (KPC) mice dosed in vivo
T1 sequence (P35991 whole entry): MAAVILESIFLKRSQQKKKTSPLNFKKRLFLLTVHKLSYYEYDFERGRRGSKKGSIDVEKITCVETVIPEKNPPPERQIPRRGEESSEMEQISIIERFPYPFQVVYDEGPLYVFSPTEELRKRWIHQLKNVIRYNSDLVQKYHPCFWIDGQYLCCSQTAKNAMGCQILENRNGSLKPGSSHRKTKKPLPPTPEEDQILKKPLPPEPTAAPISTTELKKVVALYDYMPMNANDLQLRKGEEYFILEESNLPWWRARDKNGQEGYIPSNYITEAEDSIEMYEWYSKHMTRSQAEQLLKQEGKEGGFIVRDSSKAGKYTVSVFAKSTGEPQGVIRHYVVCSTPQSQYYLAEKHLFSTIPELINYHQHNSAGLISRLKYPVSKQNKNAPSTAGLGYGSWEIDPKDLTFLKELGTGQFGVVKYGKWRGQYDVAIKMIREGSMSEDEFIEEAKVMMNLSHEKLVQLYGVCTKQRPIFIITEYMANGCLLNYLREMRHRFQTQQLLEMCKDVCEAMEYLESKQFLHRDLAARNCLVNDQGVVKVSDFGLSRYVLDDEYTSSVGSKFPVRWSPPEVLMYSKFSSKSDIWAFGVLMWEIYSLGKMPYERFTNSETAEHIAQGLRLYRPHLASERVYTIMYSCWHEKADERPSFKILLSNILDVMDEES
Source text: A molecular probe assay was used to calculate the percent irreversible occupancy of total BTK.

[6] = In vitro metabolism in hepatocytes with 14C-labeled drug; format: in vitro ADME, and human; details: mouse, rat, dog, rabbit, monkey, human hepatocytes
CD8+ T cells = experiment: CD8+ T cell viability; format: cell-based; details: ibrutinib effect at higher doses
Method: Total T cells were plated on anti-TCR and anti-CD28 coated wells in the presence of both BTK inhibitors. Neutral culture conditions were used that will not polarize T cells to a helper lineage. […] Statistical significance was calculated using the Mann Whitney T-test.

NSCLC (KrasLA2) = experiment: KrasLA2 NSCLC genetic tumor model; format: in vivo, mice; details: 15 mg/kg
Source text: The model is designed to have sporadic expression in single cells of G12D mutant Kras off its own promoter triggered by spontaneous intrachromosomal recombination. Johnson, et al. Nature 2001, 410, 1111-16. While the mutant Kras protein is expressed in a few cells in all tissues, tumor development is seen only in the lung at high penetrance.

[7] = tested on: human platelet-mediated thrombosis; experiment: Laser-induced thrombus formation with human platelets in VWF HA1 mice; details: in vivo
Method: Injury to the vessel wall of arterioles ([…] diameter) was performed using a pulsed nitrogen dye laser (440 nm, Photonic Instruments) applied through a 20× water-immersion Olympus objective (LUMPlanF1, 0.5 numerical aperature (NA)) of a Zeiss Axiotech vario microscope. […] The extent of thrombus formation was assessed for 2 minutes after injury and the area (μm^2) of coverage determined (Image IQ, Andor Technology).
The BTK inhibitor-treated human platelets were fluorescently labeled and infused continuously through a catheter inserted into the femoral artery.

Th17 cells and Treg = experiment: Th17 and Treg development from CD4+ T cells; format: cell-based
Method: Enriched CD4^+ T cells are plated on 24-well culture dishes that have been precoated 2 hr with 250 μL anti-TCRβ (0.5 μg/mL) plus anti-CD28 (5 μg/mL) at 37° C. in PBS. The cells are then supplemented with media containing BTK inhibitors along with the skewing cytokines as indicated in the following. The Th17 and Treg cultures are grown for 4 days before analysis. The cells are maintained for an additional 3 days with skewing cytokines (Th17; 20 ng/mL IL-6, 0.5 ng/mL TGF-β, 5 μg/mL IL-4, 5 μg/mL IFN-γ and Treg; 0.5 ng/mL TGF-β, 5 μg/mL IL-4, […] IFN-γ) and are supplemented with IL2 as a growth factor.

Raji cells = experiment: Rituximab ADCC chromium release assay, Raji targets; format: cell-based, human; details: 1 μM, healthy donor NK cells
Method: All in vitro experiments were performed in triplicate.
ADCC assays were performed as follows. Briefly, target cells (Raji or primary CLL) were labeled by incubation at 37° C. with 100 μCi ^51Cr for 4 hours prior to co-culture with NK cells. Cells were washed, enumerated, and then added in triplicate to prepared 96-well plates containing treated NK cells at an effector:target (E:T) ratio of 25:1. […] Cultures were incubated at 37° C. for 4 hours, and then centrifuged. Supernatants were harvested and ^51Cr release was measured by liquid scintillation counting. All experiments were performed in triplicate.

[8] = monotherapy, dose levels through 840 mg; cited from earlier work

SMILES: CC#CC(=O)N1CCC[C@H]1c1nc(-c2ccc(C(=O)Nc3ccccn3)cc2)c2c(N)nccn12 [Formula (2)]
- effect on GPVI platelet aggregation [1]: does not
- CD8+ T cells (ID8 ovarian cancer): increase
- immunosuppressive B cells, including Bregs (ID8 ovarian cancer; tumor-bearing mice): significant reduction
- activity in binding assays with 80 pharmacologic targets [2]: significant activity only against the A3 adenosine receptor
- reduction of obinutuzumab-stimulated NK degranulation (NK cells (CD56+/CD107a+)): minimal effect
- in vivo potency at inhibiting expression of activation markers CD69 and CD86 [3]: more potent
- progression-free survival versus ibrutinib-treated patients (relapsed/refractory CLL): improvement in survival
- body temperature, cardiovascular and ECG (including QT interval) parameters [4]: no meaningful changes
- CD8+ T cell function as % cytotoxicity (CD8+ T cell function): no effect
- CD8+ T cell function as IFN-γ level (CD8+ T cell function): no effect
- neurobehavioral effects and body temperature [5]: no adverse effects
- irreversible BTK occupancy in granulocytic and monocytic MDSCs (BTK): Complete BTK occupancy
- metabolites found in hepatocytes [6]: two mono-oxidized metabolites and a glutathione conjugate
- treatment-related adverse event: Headache (Grade 1/2, All (N = 44)): 7 (16) n (%)
- treatment-related adverse event: Diarrhea (Grade 1, All (N = 44)): 4 (9) n (%)
- treatment-related adverse event: Increased tendency to bruise (Grade 1, All (N = 44)): 6 (14) n (%)
- treatment-related adverse event: Petechiae (Grade 1, All (N = 44)): 3 (7) n (%)
- dose-limiting toxicities (DLTs) (relapsed/refractory CLL): No DLTs
- grade of adverse events observed (relapsed/refractory CLL): only grade 1 AEs
- lymphocytosis (relapsed/refractory CLL): lack of lymphocytosis
- treatment-related serious adverse events (SAEs) (relapsed/refractory CLL): No treatment-related serious adverse events
- effect on CD8+ T cell viability (CD8+ T cells): no effect
- tumor volumes versus vehicle (NSCLC (KrasLA2)): significant decrease
- effect on human platelet-mediated thrombus formation [7]: no significant effect
- effect on T helper 17 (Th17) cells (Th17 cells and Treg): no adverse effect
- effect on regulatory T cell (Treg) development (Th17 cells and Treg): no effect

SMILES: C=CC(=O)N1CCC[C@@H](n2nc(-c3ccc(Oc4ccccc4)cc3)c3c(N)ncnc32)C1 [Formula (10), reference compound]
- effect on GPVI platelet aggregation [1]: significantly inhibits
- effect on antibody-dependent lysis of rituximab-coated Raji cells (Raji cells): strongly inhibited
- CD8+ T cell function as % cytotoxicity (CD8+ T cell function): affects
- CD8+ T cell function as IFN-γ level (CD8+ T cell function): affects
- maximum tolerated dose [8]: No maximum tolerated dose (MTD) was apparent
- effect on CD8+ T cell viability (CD8+ T cells): strongly affects
- effect on T helper 17 (Th17) cells (Th17 cells and Treg): strongly inhibits
- effect on regulatory T cell (Treg) development (Th17 cells and Treg): strongly increases
